Blank lines part the entries; values can stand above or below the molecule they belong to.
Experiments:
[1] = Protein binding by rapid equilibrium dialysis, rat plasma; settings: 1 µM
Procedure: The fraction of unbound YL-IPA08 in plasma and liver microsomes of rat and human, and brain homogenates of rat were determined utilizing Rapid Equilibrium Dialysis method ([Waters et al., 2008]). Rat brain homogenate was harvested in 4-fold volume (w/v) of PBS (pH 7.4). YL-IPA08 were spiked into fresh plasma, rat brain homogenate, liver microsomes (0.2 mg/ml protein) at concentration of 1 µM, and then dialyzed against […] on a shaker at 37°C for 4 h. To avoid the high non-specific binding of YL-IPA08, 0.01% Tween 80 was added in the incubation mixture. At the end of the incubation, protein was precipitated with acetonitrile (containing IS) and analyzed by LC-MS/MS. Phenacetin, quinidine, and warfarin were selected as positive control for the protein binding test.
The unbound fraction of YL-IPA08 in plasma or liver microsomes (ƒu,x) was calculated as shown in Eq. 2, and unbound fraction in the tissue homogenate (ƒu,b) was calculated according to Eq. 3. fu,x = Concbuffer chamber/Concplasma/liver microsomes chamber (2) fu,b = Concbuffer chamber/Concbrain homogenate chamber (3) The measured unbound fractions would be higher when a tissue is homogenized and diluted in buffer, the unbound fractions in an undiluted tissues (ƒu,brain) were calculated using Eq. 4 ([Kalvass and Maurer, 2002]). Undiluted fu,brain=1/D/((1/fu,brain homogenate)−1)+1/D (4) Where D represents the fold of dilution factor in brain homogenates. The free fraction of plasma and undiluted tissue is used in tissue-to-plasma exposure ratio calculation.

[2] = Transcellular transport experiment with Caco-2 cells; settings: human, Caco-2
Procedure: (§1) Caco-2 cell lines were cultured (ATCC, Manassas, VA, United States) as described previously ([Liu et al., 2014]). Briefly, the cells were cultured at 37°C in 5% CO2 at 90% humidity in DMEM high glucose medium containing 20% fetal bovine serum, 1% nonessential amino acids, 100 U/ml penicillin and 1% streptomycin. For the efflux studies, the cells were seeded onto polyethylene terephthalate Millicell® cell culture inserts (0.4 μm pore size, 6.5 mm diameter, Millipore Corporation, Billerica, MA, United States) at a density of 1.7 × 10^5 cells/ml. The culture medium was refreshed on the day after seeding, after which it was refreshed every other day and on the day before the transport experiment. The cells were cultured for 20–22 days after seeding and then evaluated by measuring the transepithelial electrical resistance (TEER) (Millicell ERS®, Millipore Corporation) before experiments. […] Transepithelial permeability studies for YL-IPA08 (10 μM) were conducted from apical to basolateral side (A-B) and basolateral to apical side (B-A) for 120 min 0.2% BSA was included in the receiver solution to avoid nonspecific binding. At 60, 90, and 120 min, half volume of solution from receiver side was withdrawn, and same volume of HBSS was immediately added. Obtained samples were precipitated by adding 4× volumes of acetonitrile containing IS and centrifuged. The supernatants were stored in −20°C until further analysis by LC-MS/MS.
(§2) The in vitro t1/2 in liver microsomal incubation was calculated from the semi-log plot of percentage remaining vs. incubation time and intrinsic clearance (Clint, ml/min/mg protein) was calculated as Eq. 1: CLint=0.693/in vitro t1/2×volume of incubation (μl)/amount of microsomal protein in incubation (mg) (1) ([Suzuki et al., 2003]).Apparent permeability was obtained according to the equation Papp = (dQ/dt)/(A × C0), where dQ/dt is the mass transport rate (determined from the slope of the amount transported vs. time plot), A is the surface area of the monolayer, and C0 is the initial concentration of YL-IPA08 in the donor chamber ([Suzuki et al., 2003]). The efflux ratio was calculated for each study using the following equation: […] = Papp(B–A)/Papp(A–B), where Papp(B–A) and Papp(A–B) represent apparent drug permeability in the B to A and A to B direction, respectively. An efflux ratio greater than 2 indicates net efflux.

Caco-2 cells = experiment: as above; settings: for Concentration, A-B-A-90min / Concentration, A-B-B-90min: Caco-2, A→B; for Concentration, A-B-A-90min: apical (donor) side; for Concentration, A-B-B-90min: basolateral (receiver) side; for Concentration, B-A-A-90min / Concentration, B-A-B-90min: Caco-2, B→A; for Concentration, B-A-A-90min: apical (receiver) side; for Concentration, B-A-B-90min: basolateral (donor) side; for Concentration, DOA: Caco-2, apical donor at time 0; for Concentration, DOB: Caco-2, basolateral donor at time 0
Procedure: as §1, §2

- Papp A→B at 120 min, 10 μM [2]: 0.45 ± 0.17 ×10⁻⁶ cm/s
- Papp B→A at 120 min, 10 μM [2]: 2.63 ± 0.7 ×10⁻⁶ cm/s
- efflux ratio at 120 min, 10 μM [2]: 6.25
- Concentration, A-B-A-90min (Caco-2 cells): 8.117 ± 0.473 µM
- Concentration, A-B-B-90min (Caco-2 cells): 0.009 ± 0.002 µM
- Concentration, B-A-A-90min (Caco-2 cells): 0.203 ± 0.027 µM
- Concentration, B-A-B-90min (Caco-2 cells): 8.867 ± 0.388 µM
- Concentration, DOA (Caco-2 cells): 11.683 ± 3.499 µM
- Concentration, DOB (Caco-2 cells): 12.667 ± 2.619 µM
SMILES: C[C@H]1O[C@@H](O[C@H]2[C@@H](O)C[C@H](O[C@H]3[C@@H](O)C[C@H](O[C@H]4CC[C@@]5(C)[C@H](CC[C@@H]6[C@@H]5C[C@@H](O)[C@]5(C)[C@@H](C7=CC(=O)OC7)CC[C@]65O)C4)O[C@@H]3C)O[C@@H]2C)C[C@H](O)[C@@H]1O [Digoxin]

- Protein biding (%) ([1]; Rat plasma, dialysis 4 h): 78.08 ± 4.49%
SMILES: C=C[C@H]1C[N@@]2CC[C@H]1C[C@@H]2[C@@H](O)c1ccnc2ccc(OC)cc12 [quinidine, reference compound]

Continued, molecule first:

SMILES: CCOc1ccc(NC(C)=O)cc1 [phenacetin, reference compound]
- Protein biding (%) ([1]; Rat plasma, dialysis 4 h): 58.48 ± 2.26%

SMILES: CC(C)NCC(O)COc1cccc2ccccc12 (stereo not drawn) [Propranolol]
- Papp A→B at 120 min, 10 μM [2]: 4.35 ± 2.06 ×10⁻⁶ cm/s
- Papp B→A at 120 min, 10 μM [2]: 2.78 ± 0.09 ×10⁻⁶ cm/s
- efflux ratio at 120 min, 10 μM [2]: 0.63
- Concentration, A-B-A-90min (Caco-2 cells): 4.608 ± 0.43 µM
- Concentration, A-B-B-90min (Caco-2 cells): 0.079 ± 0.026 µM
- Concentration, B-A-A-90min (Caco-2 cells): 0.172 ± 0.019 µM
- Concentration, B-A-B-90min (Caco-2 cells): 7.267 ± 0.597 µM
- Concentration, DOA (Caco-2 cells): 10.633 ± 2.369 µM
- Concentration, DOB (Caco-2 cells): 10.367 ± 1.118 µM

SMILES: CC(=O)CC(c1ccccc1)c1c(O)c2ccccc2oc1=O (stereo not drawn) [warfarin, reference compound]
- Protein biding (%) ([1]; rat, 4 h): 99.67 ± 0.08%

Source: article PMC7732531 (Frontiers in Pharmacology, 2020)
